What was measured:
Pancreatic alpha-amylase = target: T1, Pancreatic alpha-amylase (Sus scrofa, UniProt P00690); experiment: Inhibition of porcine pancreatic alpha-amylase using starch as substrate preincubated for 15 mins followed by substrate addition measured after 10 mins by dinitrosalicylic acid reagent based assay
T1 sequence (P00690 whole entry): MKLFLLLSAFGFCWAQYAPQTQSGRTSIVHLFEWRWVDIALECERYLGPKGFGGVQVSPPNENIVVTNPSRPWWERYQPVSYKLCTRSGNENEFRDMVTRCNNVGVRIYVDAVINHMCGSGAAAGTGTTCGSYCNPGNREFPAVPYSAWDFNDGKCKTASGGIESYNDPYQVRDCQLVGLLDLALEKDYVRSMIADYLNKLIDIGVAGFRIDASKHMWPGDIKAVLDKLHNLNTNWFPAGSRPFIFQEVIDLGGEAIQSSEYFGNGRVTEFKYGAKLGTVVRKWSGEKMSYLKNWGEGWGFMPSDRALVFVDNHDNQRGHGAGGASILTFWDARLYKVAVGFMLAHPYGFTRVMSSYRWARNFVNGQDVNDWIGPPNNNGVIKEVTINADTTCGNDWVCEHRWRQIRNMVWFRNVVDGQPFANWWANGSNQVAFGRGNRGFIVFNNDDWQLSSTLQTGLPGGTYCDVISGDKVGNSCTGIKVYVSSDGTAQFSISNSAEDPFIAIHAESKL

[1] = Inhibition of yeast alpha-glucosidase using 4-nitrophenyl-alpha-D-glucopyranoside as substrate preincubated for 15 mins followed by substrate addition measured after 20 mins; design: species or system Saccharomyces cerevisiae

For C[C@H]1[C@H](C)CC[C@]2(C(=O)O[C@@H]3O[C@H](CO[C@@H]4O[C@H](CO)[C@@H](O[C@@H]5O[C@@H](C)[C@H](O)[C@@H](O)[C@H]5O)[C@H](O)[C@H]4O)[C@@H](O)[C@H](O)[C@H]3O)CC[C@]3(C)C(=CC[C@@H]4[C@@]5(C)C[C@@H](O)[C@H](O)[C@@](C)(CO)[C@@H]5CC[C@]43C)[C@H]12, the IC50 (Pancreatic alpha-amylase) was greater than 200 µM and the IC50 [1] was greater than 200 µM.
Work on C[C@H]1O[C@H](O[C@H]2[C@H](O)[C@@H](O)[C@@H](O[C@H]3[C@H](O)[C@@H](O)C(O)O[C@@H]3CO)O[C@@H]2CO)[C@H](O)[C@@H](O)[C@@H]1N[C@H]1C=C(CO)[C@@H](O)[C@H](O)[C@H]1O (some centres not stated) [ACARBOSE] yielded an IC50 [1] of 2480 µM.
C[C@H]1[C@H](C)CC[C@]2(C(=O)O)CC[C@]3(C)C(=CC[C@@H]4[C@@]5(C)C[C@@H](O)[C@H](O)[C@@](C)(CO)[C@@H]5CC[C@]43C)[C@H]12 [ASIATIC ACID] gave an IC50 (Pancreatic alpha-amylase) greater than 200 µM and an IC50 [1] of 100 µM.
In the case of C=C(C)[C@@H]1CC[C@]2(C(=O)O)CC[C@]3(C)[C@H](CC[C@@H]4[C@@]5(C)CC[C@H](O)C(C)(C)[C@@H]5CC[C@]43C)[C@@H]12 [BETULINIC ACID], the IC50 (Pancreatic alpha-amylase) is reported as greater than 200 µM and the IC50 [1] is reported as 14.9 µM.
In the case of C=C(C)[C@@H]1CC[C@]2(CO)CC[C@]3(C)[C@H](CC[C@@H]4[C@@]5(C)CC[C@H](O)C(C)(C)[C@@H]5CC[C@]43C)[C@@H]12 [BETULIN], the IC50 (Pancreatic alpha-amylase) is reported as greater than 200 µM and the IC50 [1] is reported as 52.5 µM.
Work on C[C@H]1[C@H](C)CC[C@]2(C(=O)O)CC[C@]3(C)C(=CC[C@@H]4[C@@]5(C)C[C@@H](O)[C@H](O)C(C)(C)[C@@H]5CC[C@]43C)[C@H]12 [COROSOLIC ACID] yielded an IC50 (Pancreatic alpha-amylase) of 31.2 µM and an IC50 [1] of 17.2 µM.
Molecule CC1(C)[C@@H](O)CC[C@]2(C)[C@H]3C(=O)C=C4[C@@H]5C[C@@](C)(C(=O)O)CC[C@]5(C)CC[C@@]4(C)[C@]3(C)CC[C@@H]12 [ENOXOLONE] has an IC50 (Pancreatic alpha-amylase) greater than 200 µM and an IC50 [1] greater than 200 µM.
CC1(C)[C@@H](O[C@H]2O[C@H](C(=O)O)[C@@H](O)[C@H](O)[C@H]2O[C@@H]2O[C@H](C(=O)O)[C@@H](O)[C@H](O)[C@H]2O)CC[C@]2(C)[C@H]3C(=O)C=C4[C@@H]5C[C@@](C)(C(=O)O)CC[C@]5(C)CC[C@@]4(C)[C@]3(C)CC[C@@H]12 [GLYCYRRHIZIN] gave an IC50 (Pancreatic alpha-amylase) greater than 200 µM and an IC50 [1] greater than 200 µM.
In the case of CC1(C)CC[C@]2(C(=O)O)CC[C@]3(C)C(=CC[C@@H]4[C@@]5(C)CC[C@H](O)C(C)(C)[C@@H]5CC[C@]43C)[C@@H]2C1 [OLEANOLIC_ACID], the IC50 [1] is reported as 35.6 µM.
With C[C@H]1[C@H](C)CC[C@]2(C(=O)O)CC[C@]3(C)C(=CC[C@@H]4[C@@]5(C)CC[C@H](O)C(C)(C)[C@@H]5CC[C@]43C)[C@H]12 [URSOLIC ACID] the IC50 [1] was 12.1 µM.

— ChEMBL document CHEMBL4043266, “Pentacyclic triterpenes as α-glucosidase and α-amylase inhibitors: Structure-activity relationships and the synergism with acarbose” (Bioorg Med Chem Lett, 2017)
